The record followed here is US20240376056A1, “PHENYL ACETAMIDE BASED IL-17A MODULATORS AND USES THEREOF” (DiCE Alpha, Inc., priority 2021, published 2024).

The experiment addresses T1, IL-17A/A (Homo sapiens, UniProt Q16552).
T1 construct: purchased Genscript Z03228
T1 sequence (Q16552 24-155): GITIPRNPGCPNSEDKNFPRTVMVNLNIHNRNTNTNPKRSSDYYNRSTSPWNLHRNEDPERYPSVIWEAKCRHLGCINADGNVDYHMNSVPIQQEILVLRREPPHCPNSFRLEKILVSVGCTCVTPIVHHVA
Put plainly: HEK-Blue IL-17A/A inhibition assay (SEAP reporter). Type of experiment: cell-based. The conditions noted are these: HEK-Blue cells (HEK 293 expressing IL-17RA, IL-17RC, Act1); IL-17A/A stimulation; 20 hours; SEAP read at A630; 4-parameter fit. As to the method: The HEK-Blue #NC108637 […]. Cells were grown and prepared for assays according to the manufacturer's instructions. This cell line consists of HEK 293 cells that were designed to expressed IL-17R^A, IL-17RC, and the ActI adapter molecule, the combination of which. when stimulated by IL-17A/A activates a NFtcB promoter and drives expression of a recombinant Secreted Alkaline Phosphatase (SEAP) geneprotein. Media from the cells is then added to a development reagent (Quanti-Blue Substrate, Fisher #NC971 1613), and read at A630.
Compounds were titrated in DMSO. with a top final compound concentration of 10 uM, 1 uM, or 0.3 uM, and added to the cells immediately before adding IL-17A/A (Genscript #Z03228). The cells, compound, and IL-17A/A were then incubated for 20 hours before media was removed for SEAP analysis. The resulting inhibition curve was then analyzed using Graphpad Prism 7.0, and IC50 values were determined using a 4-parameter nonlinear fit. DMSO was added to a universal final concentration of 0.1% to optimze background.

For the compound `CC(C(=O)NCC(F)(F)F)c1cc(F)c(NC(=O)[C@@H](NC(=O)c2ccnn2C(C)C)C(C2CC2)C2CC2)cc1C#N` (single isomer, unassigned) [Compound 115], the IC50 (as a rule, the concentration that gives 50% inhibition) fell in the range of 100 to 1000 nM.

Consider `CC(C(=O)NCC(F)(F)F)c1cc(F)c(NC(=O)[C@@H](NC(=O)c2ccnn2C(C)C)C(C2CC2)C2CC2)cc1C(N)=O` (single isomer, unassigned) [Compound 116], for which the IC50 is greater than 1000 nM. Under `CC(C(=O)NCC(F)(F)F)c1cc(F)c(NC(=O)[C@@H](NC(=O)c2ccnn2C(C)C)C(C2CC2)C2CC2)cc1C(N)=O` (single isomer, unassigned) [Compound 117] stands 100 to 1000 nM; under `CC(C(=O)NCC(F)(F)F)c1cc(F)c(NC(=O)[C@@H](NC(=O)c2ccnn2C(C)C)C(C2CC2)C2CC2)cc1C#N` (single isomer, unassigned) [Compound 118], greater than 1000 nM. With `CC(C(=O)NCC(F)(F)F)c1cc(F)c(NC(=O)[C@@H](NC(=O)c2ccnn2C(C)C)C(C2CC2)C2CC2)cc1C(F)(F)F` (single isomer, unassigned) [Compound 120], the IC50 was less than 100 nM. Regarding `CC(C(=O)NCC(F)(F)F)c1cc(F)c(NC(=O)[C@@H](NC(=O)c2ccnn2C(C)C)C(C2CC2)C2CC2)cc1C(F)(F)F` (single isomer, unassigned) [Compound 121], the IC50 was greater than 1000 nM.

Consider `COc1cc(NC(=O)[C@@H](NC(=O)c2ccnn2C(C)C)C(C2CC2)C2CC2)c(F)cc1C(C)C(=O)NCC(F)(F)F` (single isomer, unassigned) [Compound 122], for which the IC50 is greater than 1000 nM. The value for `COc1cc(NC(=O)[C@@H](NC(=O)c2ccnn2C(C)C)C(C2CC2)C2CC2)c(F)cc1C(C)C(=O)NCC(F)(F)F` (single isomer, unassigned) [Compound 123] was less than 100 nM; that for `COCc1cc(NC(=O)[C@@H](NC(=O)c2ccnn2C(C)C)C(C2CC2)C2CC2)c(F)cc1C(C)C(=O)NCC(F)(F)F` (single isomer, unassigned) [Compound 124] was less than 100 nM; that for `COCc1cc(NC(=O)[C@@H](NC(=O)c2ccnn2C(C)C)C(C2CC2)C2CC2)c(F)cc1C(C)C(=O)NCC(F)(F)F` (single isomer, unassigned) [Compound 125] was greater than 1000 nM.

With `CC(C(=O)NCC(F)(F)F)c1cc(F)c(NC(=O)[C@@H](NC(=O)c2ccnn2C(C)C)C(C2CC2)C2CC2)cc1C1CC1` (single isomer, unassigned) [Compound 126], the IC50 is 100 to 1000 nM.

`CC(C(=O)NCC(F)(F)F)c1cc(F)c(NC(=O)[C@@H](NC(=O)c2ccnn2C(C)C)C(C2CC2)C2CC2)cc1C1CC1` (single isomer, unassigned) [Compound 127]: the IC50 is less than 100 nM. In the case of `CC(C)C(C(=O)NCC(F)(F)F)c1ccc(NC(=O)[C@@H](NC(=O)c2ccnn2C(C)C)C(C2CC2)C2CC2)c(F)c1` (single isomer, unassigned) [Compound 128], the IC50 lay within 100 to 1000 nM. The value for `CC(C)C(C(=O)NCC(F)(F)F)c1ccc(NC(=O)[C@@H](NC(=O)c2ccnn2C(C)C)C(C2CC2)C2CC2)c(F)c1` (single isomer, unassigned) [Compound 129] was greater than 1000 nM; that for `CC(C)n1nccc1C(=O)N[C@H](C(=O)Nc1ccc(C(CN2CCOCC2)C(=O)NCC(F)(F)F)cc1F)C(C1CC1)C1CC1` (single isomer, unassigned) [Compound 130] was greater than 1000 nM; that for `CC(C)n1nccc1C(=O)N[C@H](C(=O)Nc1ccc(C(CN2CCOCC2)C(=O)NCC(F)(F)F)cc1F)C(C1CC1)C1CC1` (single isomer, unassigned) [Compound 131] was 100 to 1000 nM. As for `CC(C)n1nccc1C(=O)N[C@H](C(=O)Nc1ccc([C@H](C)C(=O)NC2CNCC2(F)F)cc1F)C(C1CC1)C1CC1` (single isomer, unassigned) [Compound 133], the IC50 was greater than 1000 nM.

With `CC(C)n1nccc1C(=O)N[C@H](C(=O)Nc1ccc([C@H](C)C(=O)NC2CNCC2(F)F)cc1F)C(C1CC1)C1CC1` (single isomer, unassigned) [Compound 134], the half-maximal inhibitory concentration (IC50) is 100 to 1000 nM. The value for `CC(C(=O)N(CC(N)=O)CC(F)(F)F)c1ccc(NC(=O)[C@@H](NC(=O)c2ccnn2C(C)C)C(C2CC2)C2CC2)c(F)c1` (single isomer, unassigned) [Compound 137] was less than 100 nM. Under `CC(C(=O)N(CC(N)=O)CC(F)(F)F)c1ccc(NC(=O)[C@@H](NC(=O)c2ccnn2C(C)C)C(C2CC2)C2CC2)c(F)c1` (single isomer, unassigned) [Compound 138] stands greater than 1000 nM. The value for `CC(C)n1nccc1C(=O)N[C@H](C(=O)Nc1ccc(C(C(=O)NCC(F)(F)F)N2CCOCC2)cc1F)C(C1CC1)C1CC1` (single isomer, unassigned) [Compound 140] was greater than 1000 nM. Turning to `CC(C)n1nccc1C(=O)N[C@H](C(=O)Nc1ccc(C(C(=O)NCC(F)(F)F)N2CCOCC2)cc1F)C(C1CC1)C1CC1` (single isomer, unassigned) [Compound 141], the IC50 was greater than 1000 nM. The value for `CC(C)n1nccc1C(=O)N[C@H](C(=O)Nc1ccc([C@H](C)C(=O)N2CC(O)CC2C(F)(F)F)cc1F)C(C1CC1)C1CC1` (single isomer, unassigned) [Compound 142] was less than 100 nM; that for `CC(C)n1nccc1C(=O)N[C@H](C(=O)Nc1ccc([C@H](C)C(=O)N2CC(O)CC2C(F)(F)F)cc1F)C(C1CC1)C1CC1` (single isomer, unassigned) [Compound 143] was 100 to 1000 nM; that for `CC(C)n1nccc1C(=O)N[C@H](C(=O)Nc1ccc([C@H](C)C(=O)N2CC(O)CC2C(F)(F)F)cc1F)C(C1CC1)C1CC1` (single isomer, unassigned) [Compound 144] was greater than 1000 nM.

Regarding `CC(C)n1nccc1C(=O)N[C@H](C(=O)Nc1ccc([C@H](C)C(=O)N2CC(O)CC2C(F)(F)F)cc1F)C(C1CC1)C1CC1` (single isomer, unassigned) [Compound 145], the IC50 is greater than 1000 nM. Under `CC(C)n1nccc1C(=O)N[C@H](C(=O)Nc1ccc([C@H](C)C(=O)N2C(C(N)=O)CCC2C(F)(F)F)cc1F)C(C1CC1)C1CC1` (single isomer, unassigned) [Compound 146] stands greater than 1000 nM; under `CC(C)n1nccc1C(=O)N[C@H](C(=O)Nc1ccc([C@H](C)C(=O)N2C(C(N)=O)CCC2C(F)(F)F)cc1F)C(C1CC1)C1CC1` (single isomer, unassigned) [Compound 147], greater than 1000 nM. Under `CC(C)n1nccc1C(=O)N[C@H](C(=O)Nc1ccc([C@H](C)C(=O)N2C(C(N)=O)CCC2C(F)(F)F)cc1F)C(C1CC1)C1CC1` (single isomer, unassigned) [Compound 148] stands greater than 1000 nM; under `CCC(C(=O)NCC(F)(F)F)c1ccc(NC(=O)[C@@H](NC(=O)c2ccnn2C(C)C)C(C2CC2)C2CC2)c(F)c1` (single isomer, unassigned) [Compound 149], 100 to 1000 nM; under `CCC(C(=O)NCC(F)(F)F)c1ccc(NC(=O)[C@@H](NC(=O)c2ccnn2C(C)C)C(C2CC2)C2CC2)c(F)c1` (single isomer, unassigned) [Compound 150], greater than 1000 nM.

On to `CC(C)n1nccc1C(=O)N[C@H](C(=O)Nc1ccc([C@H](C)C(=O)NC(C2CCOC2)C(F)(F)F)cc1F)C(C1CC1)C1CC1` (single isomer, unassigned) [Compound 151], for which the IC50 fell in the range of 100 to 1000 nM. As for `CC(C)n1nccc1C(=O)N[C@H](C(=O)Nc1ccc([C@H](C)C(=O)NC(C2CCOC2)C(F)(F)F)cc1F)C(C1CC1)C1CC1` (single isomer, unassigned) [Compound 152], the IC50 was 100 to 1000 nM. `CCOC(=O)Nc1cc(NC(=O)[C@@H](NC(=O)c2ccnn2C(C)C)C(C2CC2)C2CC2)c(F)cc1C(C)C(=O)NCC(F)(F)F` (single isomer, unassigned) [Compound 158]: the IC50 was less than 100 nM. As for `CC(=O)Nc1cc(NC(=O)[C@@H](NC(=O)c2ccnn2C(C)C)C(C2CC2)C2CC2)c(F)cc1C(C)C(=O)NCC(F)(F)F` (single isomer, unassigned) [Compound 159], the IC50 is less than 100 nM. The value for `COC(=O)Nc1cc(NC(=O)[C@@H](NC(=O)c2ccnn2C(C)C)C(C2CC2)C2CC2)c(F)cc1C(C)C(=O)NCC(F)(F)F` (single isomer, unassigned) [Compound 161] was less than 100 nM; that for `CC(C(=O)N(C)CC(F)(F)F)c1cc(F)c(NC(=O)[C@@H](NC(=O)c2ccnn2C(C)C)C(C2CC2)C2CC2)cc1N(C)C` (single isomer, unassigned) [Compound 162] was less than 100 nM; that for `CC(C(=O)NCC(F)(F)F)c1cc(F)c(NC(=O)[C@@H](NC(=O)c2ccnn2C(C)C)C(C2CC2)C2CC2)cc1N(C)C` (single isomer, unassigned) [Compound 163] was less than 100 nM. As to `CNc1cc(NC(=O)[C@@H](NC(=O)c2ccnn2C(C)C)C(C2CC2)C2CC2)c(F)cc1C(C)C(=O)NCC(F)(F)F` (single isomer, unassigned) [Compound 164], the IC50 was less than 100 nM. With `CC(=O)NC(C(=O)NCC(F)(F)F)c1ccc(NC(=O)[C@@H](NC(=O)c2ccnn2C(C)C)C(C2CC2)C2CC2)c(F)c1` (single isomer, unassigned) [Compound 167], the IC50 was 100 to 1000 nM.
